Measured values taken from US20070149535A1, “Protein kinase inhibitors” (ONCALIS AG, priority 2004, published 2007).

Tests used:
Experiment in all cases: Yeast growth assay, specificity profiling;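 as to EGFR (L858R) growth restoration: Parenthesized + marks a result obtained in a different yeast background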
Assay type in all cases: cell-based
Set-up in all cases: key: “−” indicates no growth restoration i.e. no activity against the particular kinase; “+”, “++”, and “+++” indicate activity detected by restoration of growth, classified into three categories of potency; “+”, “++”, and “+++” indicate activity detected by restoration of growth, classified into three categories of potency; “+”, “++”, and “+++” indicate activity detected by restoration of growth, classified into three categories of potency
Settings in all cases: 7 concentrations between 0.2 and 100 μM
FGFR-1 = molecular target: T1, FGFR-1 (Homo sapiens, UniProt P11362)
T1 construct: expressed in transfected cells; host or cells: yeast
T1 sequence (P11362 22-822): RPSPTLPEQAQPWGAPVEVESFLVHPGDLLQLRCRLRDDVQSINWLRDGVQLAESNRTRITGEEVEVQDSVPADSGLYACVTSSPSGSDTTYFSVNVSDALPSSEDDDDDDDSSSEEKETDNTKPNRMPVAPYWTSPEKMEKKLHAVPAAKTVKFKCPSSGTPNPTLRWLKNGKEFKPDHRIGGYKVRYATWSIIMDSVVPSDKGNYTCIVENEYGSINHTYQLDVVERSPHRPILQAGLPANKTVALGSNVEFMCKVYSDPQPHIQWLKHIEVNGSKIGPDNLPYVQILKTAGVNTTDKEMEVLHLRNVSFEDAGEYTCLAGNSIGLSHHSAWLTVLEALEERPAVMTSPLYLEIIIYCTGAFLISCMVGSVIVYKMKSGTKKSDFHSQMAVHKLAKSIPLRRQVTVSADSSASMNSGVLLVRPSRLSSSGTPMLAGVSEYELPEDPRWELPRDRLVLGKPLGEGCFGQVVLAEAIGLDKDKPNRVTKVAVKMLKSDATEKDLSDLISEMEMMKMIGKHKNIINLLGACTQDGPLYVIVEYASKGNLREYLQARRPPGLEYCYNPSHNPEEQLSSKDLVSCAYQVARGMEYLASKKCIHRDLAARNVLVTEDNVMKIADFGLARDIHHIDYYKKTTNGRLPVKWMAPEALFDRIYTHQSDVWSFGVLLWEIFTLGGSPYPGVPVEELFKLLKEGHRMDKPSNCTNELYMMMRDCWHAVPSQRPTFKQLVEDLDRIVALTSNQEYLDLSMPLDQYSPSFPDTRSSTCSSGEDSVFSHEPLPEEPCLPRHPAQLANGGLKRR
In short: (§1)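 Read-out: rescue of yeast growth, scored − (none) to +++ by maximal restoration level and concentration at which it occurs. Galactose induces RTK expression from plasmid, which inhibits growth; glucose pre-culture represses it. 7-point titration, 0.2–100 μM.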

KIT = molecular target: T2, KIT (Homo sapiens, UniProt P10721)
T2 construct: expressed in transfected cells; host or cells: yeast
T2 sequence (P10721 26-976): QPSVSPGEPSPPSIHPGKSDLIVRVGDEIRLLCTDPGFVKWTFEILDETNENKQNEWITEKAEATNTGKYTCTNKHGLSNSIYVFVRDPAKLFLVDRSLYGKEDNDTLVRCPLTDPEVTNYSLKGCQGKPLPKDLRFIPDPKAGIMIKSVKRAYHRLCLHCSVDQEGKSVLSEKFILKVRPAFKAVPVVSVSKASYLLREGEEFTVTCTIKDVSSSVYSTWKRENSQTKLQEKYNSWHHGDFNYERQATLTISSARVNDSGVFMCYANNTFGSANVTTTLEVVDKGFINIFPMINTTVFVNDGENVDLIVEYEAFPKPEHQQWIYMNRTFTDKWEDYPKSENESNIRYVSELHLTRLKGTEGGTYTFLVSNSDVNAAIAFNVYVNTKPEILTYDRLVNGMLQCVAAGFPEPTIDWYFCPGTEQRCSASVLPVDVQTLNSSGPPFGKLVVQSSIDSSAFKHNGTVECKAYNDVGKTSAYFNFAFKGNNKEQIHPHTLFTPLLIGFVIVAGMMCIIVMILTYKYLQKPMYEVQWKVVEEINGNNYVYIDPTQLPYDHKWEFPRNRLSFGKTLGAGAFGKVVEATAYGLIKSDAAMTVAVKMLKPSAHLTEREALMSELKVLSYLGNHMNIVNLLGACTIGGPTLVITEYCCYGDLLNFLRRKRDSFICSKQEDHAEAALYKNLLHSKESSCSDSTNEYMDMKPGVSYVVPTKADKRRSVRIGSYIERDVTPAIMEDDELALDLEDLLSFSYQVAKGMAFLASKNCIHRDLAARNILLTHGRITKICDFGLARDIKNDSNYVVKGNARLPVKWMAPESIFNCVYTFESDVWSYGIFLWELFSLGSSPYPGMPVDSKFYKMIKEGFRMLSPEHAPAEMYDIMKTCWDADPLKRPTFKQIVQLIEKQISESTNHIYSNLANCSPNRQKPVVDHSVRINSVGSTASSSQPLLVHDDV
In short: as §1

ErbB2 = molecular target: T3, ErbB2 (Homo sapiens, UniProt P04626)
T3 construct: expressed in transfected cells; host or cells: yeast
T3 sequence (P04626 23-1255): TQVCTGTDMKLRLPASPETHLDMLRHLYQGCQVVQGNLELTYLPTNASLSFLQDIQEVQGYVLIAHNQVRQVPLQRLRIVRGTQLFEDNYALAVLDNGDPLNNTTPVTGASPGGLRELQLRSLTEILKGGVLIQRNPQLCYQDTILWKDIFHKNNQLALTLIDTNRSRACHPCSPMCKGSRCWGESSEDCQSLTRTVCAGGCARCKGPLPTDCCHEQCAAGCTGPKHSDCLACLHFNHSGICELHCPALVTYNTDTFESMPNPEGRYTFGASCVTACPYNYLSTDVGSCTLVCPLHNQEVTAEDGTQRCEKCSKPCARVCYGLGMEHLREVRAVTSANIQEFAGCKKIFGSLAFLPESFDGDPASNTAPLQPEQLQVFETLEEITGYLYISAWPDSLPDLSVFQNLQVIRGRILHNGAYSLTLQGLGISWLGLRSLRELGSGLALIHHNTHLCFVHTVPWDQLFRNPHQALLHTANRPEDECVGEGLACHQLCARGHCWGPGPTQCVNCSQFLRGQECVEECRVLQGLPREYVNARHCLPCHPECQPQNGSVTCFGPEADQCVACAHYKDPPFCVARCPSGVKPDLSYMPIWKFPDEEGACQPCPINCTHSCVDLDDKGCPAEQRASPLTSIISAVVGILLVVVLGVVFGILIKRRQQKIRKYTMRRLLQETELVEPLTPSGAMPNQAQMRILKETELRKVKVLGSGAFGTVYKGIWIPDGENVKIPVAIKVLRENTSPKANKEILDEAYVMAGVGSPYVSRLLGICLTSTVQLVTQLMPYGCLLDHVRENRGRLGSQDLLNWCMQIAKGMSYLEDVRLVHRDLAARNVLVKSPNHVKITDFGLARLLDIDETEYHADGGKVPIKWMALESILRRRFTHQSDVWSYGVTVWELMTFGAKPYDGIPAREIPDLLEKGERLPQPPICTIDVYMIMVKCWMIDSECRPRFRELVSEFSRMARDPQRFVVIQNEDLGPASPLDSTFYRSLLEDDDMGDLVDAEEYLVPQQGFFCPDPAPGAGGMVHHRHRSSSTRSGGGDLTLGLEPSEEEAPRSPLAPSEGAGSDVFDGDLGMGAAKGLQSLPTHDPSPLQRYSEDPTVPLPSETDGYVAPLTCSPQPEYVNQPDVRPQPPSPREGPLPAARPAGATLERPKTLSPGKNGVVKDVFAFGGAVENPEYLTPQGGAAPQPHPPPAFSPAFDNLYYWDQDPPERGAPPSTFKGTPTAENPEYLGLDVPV
In short: as §1

FLT3 = molecular target: T4, FLT3 (Homo sapiens, UniProt P36888)
T4 construct: expressed in transfected cells; host or cells: yeast
T4 sequence (P36888 27-993): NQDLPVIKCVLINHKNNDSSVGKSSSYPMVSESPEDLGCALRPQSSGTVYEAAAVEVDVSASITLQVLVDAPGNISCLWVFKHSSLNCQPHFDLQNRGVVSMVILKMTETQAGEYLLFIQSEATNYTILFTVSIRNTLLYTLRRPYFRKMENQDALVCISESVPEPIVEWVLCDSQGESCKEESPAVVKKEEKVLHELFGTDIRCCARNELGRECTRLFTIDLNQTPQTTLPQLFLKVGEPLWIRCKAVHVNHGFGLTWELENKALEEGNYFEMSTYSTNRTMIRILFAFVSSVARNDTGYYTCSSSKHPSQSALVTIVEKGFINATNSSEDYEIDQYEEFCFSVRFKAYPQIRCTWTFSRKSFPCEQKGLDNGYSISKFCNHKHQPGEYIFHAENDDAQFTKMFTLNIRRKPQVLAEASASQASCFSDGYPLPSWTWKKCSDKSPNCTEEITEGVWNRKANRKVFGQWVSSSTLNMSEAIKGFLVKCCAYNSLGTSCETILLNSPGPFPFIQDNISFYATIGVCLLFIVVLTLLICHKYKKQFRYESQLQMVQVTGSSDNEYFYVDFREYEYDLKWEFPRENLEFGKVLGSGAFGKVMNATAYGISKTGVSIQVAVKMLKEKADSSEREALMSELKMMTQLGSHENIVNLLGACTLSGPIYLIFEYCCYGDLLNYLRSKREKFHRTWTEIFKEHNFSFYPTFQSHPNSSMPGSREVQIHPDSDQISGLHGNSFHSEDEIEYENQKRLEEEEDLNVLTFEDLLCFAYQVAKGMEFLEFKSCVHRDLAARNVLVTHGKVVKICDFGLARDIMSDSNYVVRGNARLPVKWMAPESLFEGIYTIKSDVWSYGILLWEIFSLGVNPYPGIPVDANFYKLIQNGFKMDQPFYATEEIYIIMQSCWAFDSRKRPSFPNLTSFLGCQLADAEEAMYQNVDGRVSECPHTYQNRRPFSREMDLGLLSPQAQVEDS
In short: as §1

EGFR (L858R) = molecular target: T5, EGFR (L858R) (Homo sapiens, UniProt P00533, L858R);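 also: Parenthesized + marks a result obtained in a different yeast background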
T5 construct: expressed in transfected cells; host or cells: yeast
In short: as §1

FGFR-4 = molecular target: T6, FGFR-4 (Homo sapiens, UniProt P22455)
T6 construct: expressed in transfected cells; host or cells: yeast
T6 sequence (P22455 22-802): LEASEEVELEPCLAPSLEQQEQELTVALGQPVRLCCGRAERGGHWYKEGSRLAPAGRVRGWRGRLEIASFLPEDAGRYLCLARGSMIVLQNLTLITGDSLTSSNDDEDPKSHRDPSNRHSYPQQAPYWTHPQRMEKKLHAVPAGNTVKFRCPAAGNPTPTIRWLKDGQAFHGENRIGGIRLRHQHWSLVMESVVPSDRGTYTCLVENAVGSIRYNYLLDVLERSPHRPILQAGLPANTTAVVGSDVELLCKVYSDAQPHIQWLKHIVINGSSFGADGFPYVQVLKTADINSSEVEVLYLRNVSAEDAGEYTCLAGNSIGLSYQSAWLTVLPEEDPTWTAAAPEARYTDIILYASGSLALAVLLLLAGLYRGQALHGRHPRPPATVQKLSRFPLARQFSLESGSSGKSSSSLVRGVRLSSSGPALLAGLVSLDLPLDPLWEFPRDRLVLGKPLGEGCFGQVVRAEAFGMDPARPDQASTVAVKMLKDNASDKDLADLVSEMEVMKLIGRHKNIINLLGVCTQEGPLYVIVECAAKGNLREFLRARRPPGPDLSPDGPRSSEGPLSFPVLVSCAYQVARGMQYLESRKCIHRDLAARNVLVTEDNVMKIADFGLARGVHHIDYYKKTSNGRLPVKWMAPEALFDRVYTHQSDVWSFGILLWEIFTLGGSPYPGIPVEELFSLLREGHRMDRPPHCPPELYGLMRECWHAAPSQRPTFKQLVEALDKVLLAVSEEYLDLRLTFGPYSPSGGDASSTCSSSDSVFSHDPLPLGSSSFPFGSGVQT
In short: as §1

PDGFRa = molecular target: T7, PDGFRa (Homo sapiens, UniProt P16234)
T7 construct: expressed in transfected cells; host or cells: yeast
T7 sequence (P16234 24-1089): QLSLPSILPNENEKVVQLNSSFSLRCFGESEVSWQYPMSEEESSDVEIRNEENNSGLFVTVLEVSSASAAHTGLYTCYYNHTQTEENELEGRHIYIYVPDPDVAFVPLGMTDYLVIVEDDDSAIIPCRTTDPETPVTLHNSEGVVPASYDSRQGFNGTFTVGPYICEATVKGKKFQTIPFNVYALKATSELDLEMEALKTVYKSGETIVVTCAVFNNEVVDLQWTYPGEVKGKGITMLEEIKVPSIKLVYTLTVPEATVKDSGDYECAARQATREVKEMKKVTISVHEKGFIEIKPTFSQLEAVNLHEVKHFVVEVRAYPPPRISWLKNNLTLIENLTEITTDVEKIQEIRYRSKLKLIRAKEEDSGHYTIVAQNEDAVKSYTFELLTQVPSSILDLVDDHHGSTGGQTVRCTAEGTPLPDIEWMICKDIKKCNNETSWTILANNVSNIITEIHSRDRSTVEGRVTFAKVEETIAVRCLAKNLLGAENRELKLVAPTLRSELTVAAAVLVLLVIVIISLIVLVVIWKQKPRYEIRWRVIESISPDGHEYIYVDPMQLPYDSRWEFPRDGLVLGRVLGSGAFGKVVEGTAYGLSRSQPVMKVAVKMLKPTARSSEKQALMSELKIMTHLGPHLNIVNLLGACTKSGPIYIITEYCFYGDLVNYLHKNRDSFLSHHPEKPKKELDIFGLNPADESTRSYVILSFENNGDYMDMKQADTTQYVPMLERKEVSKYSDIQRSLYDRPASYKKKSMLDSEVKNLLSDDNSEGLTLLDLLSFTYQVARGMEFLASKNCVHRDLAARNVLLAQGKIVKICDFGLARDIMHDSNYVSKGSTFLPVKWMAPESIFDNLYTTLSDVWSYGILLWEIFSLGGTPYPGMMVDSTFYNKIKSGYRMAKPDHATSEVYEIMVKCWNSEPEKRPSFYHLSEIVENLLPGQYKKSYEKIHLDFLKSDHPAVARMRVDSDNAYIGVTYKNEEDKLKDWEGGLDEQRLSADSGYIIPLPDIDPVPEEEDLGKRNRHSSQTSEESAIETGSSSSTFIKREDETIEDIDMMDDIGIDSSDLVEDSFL
In short: as §1

SMILES	FGFR-1 growth restoration (FGFR-1)	KIT growth restoration (KIT)	ErbB2 growth restoration (ErbB2)	FLT3 growth restoration (FLT3)	EGFR (L858R) growth restoration (EGFR (L858R))	FGFR-4 growth restoration (FGFR-4)	PDGFRa growth restoration (PDGFRa)
Cc1nccn2c(Nc3ccccc3)c(-c3ccccc3)nc12 [compound 39, (8-Methyl-2-phenyl-imidazo[1,2-a]pyrazin-3-yl)-phenyl-amine]	−	−	−	−	+	−	−
c1ccc(Nc2c(-c3ccccc3)nc3cnccn23)cc1 [compound 23, Phenyl-(2-phenyl-imidazo[1,2-a]pyrazin-3-yl)-amine]	−	−	−	−	+	−	−
Cc1nccn2c(Nc3cccc(Cl)c3)c(-c3ccccc3)nc12 [compound 3, (3-Chloro-phenyl)-(8-methyl-2-phenyl-imidazo[1,2-a]pyrazin-3-yl)-amine]	−	−	−	−	+	−	−
Cc1cccc(Nc2c(-c3ccccc3)nc3c(C)nccn23)c1 [compound 43, (8-Methyl-2-phenyl-imidazo[1,2-a]pyrazin-3-yl)-m-tolyl-amine]	−	−	−	−	−	−	−
Cc1nccn2c(Nc3ccc(F)c(F)c3)c(-c3ccccc3)nc12 [compound 45, (3,4-Difluoro-phenyl)-(8-methyl-2-phenyl-imidazo[1,2-a]pyrazin-3-yl)-amine]	−	−	−	−	−	−	−
Cc1nccn2c(Nc3cccc(F)c3)c(-c3ccccc3)nc12 [compound 44, (3-Fluoro-phenyl)-(8-methyl-2-phenyl-imidazo[1,2-a]pyrazin-3-yl)-amine]	−	−	−	−	+	−	−

The remaining lines, values ahead:

FGFR-1 growth restoration (FGFR-1)	KIT growth restoration (KIT)	ErbB2 growth restoration (ErbB2)	FLT3 growth restoration (FLT3)	EGFR (L858R) growth restoration (EGFR (L858R))	FGFR-4 growth restoration (FGFR-4)	PDGFRa growth restoration (PDGFRa)	SMILES
−	−	−	−	−	−	−	Brc1cccc(Nc2c(-c3ccccc3)nc3cnccn23)c1 [compound 14, (3-Bromo-phenyl)-(2-phenyl-imidazo[1,2-a]pyrazin-3-yl)-amine]
−	−	−	−	+	−	−	COc1cccc(-c2nc3cnccn3c2Nc2cccc(Cl)c2)c1 [compound 7, (3-Chloro-phenyl)-[2-(3-methoxy-phenyl)-imidazo[1,2-a]pyrazin-3-yl]-amine]
−	−	−	−	+	−	−	Clc1cccc(Nc2c(-c3ccccc3)nc3cnccn23)c1 [compound 35, (3-Chloro-phenyl)-(2-phenyl-imidazo[1,2-a]pyrazin-3-yl)-amine]
−	−	−	−	−	−	−	Cc1cccc(Nc2c(-c3ccccc3)nc3cnccn23)c1 [compound 34, (2-Phenyl-imidazo[1,2-a]pyrazin-3-yl)-m-tolyl-amine]
−	−	−	−	−	−	−	Clc1ccc(Nc2c(-c3ccccc3)nc3cnccn23)cc1 [compound 16, (4-Chloro-phenyl)-(2-phenyl-imidazo[1,2-a]pyrazin-3-yl)-amine]
